Test results reported in the NIST ThermoML archive (doi:10.1021/je201391j).

Conditions: 101 kPa, Liquid mixture 1, Pendant Drop method

CCCC[N+]1(C)CCCC1.O=S(=O)([N-]S(=O)(=O)C(F)(F)F)C(F)(F)F + CCCCO
Conditions | interfacial tension [mN/m]
293.15 K | 0.666
295.65 K | 0.576
298.15 K | 0.443
300.65 K | 0.368
303.15 K | 0.276
305.65 K | 0.163
